From ChEMBL document CHEMBL1777743, “Macrolactin W, a new antibacterial macrolide from a marine Bacillus sp” (2011)
In brackets after ≈: the same amount, converted by molar mass. Activity calls are given as the source filed them. The calls are words filed in the database; no cut-off is given here.

Key:
[1] = test system: Escherichia coli; assay: Antibacterial activity against Escherichia coli KCTC 1923 after 18 hrs by serial dilution technique; format: functional; conditions: KCTC 1923, 18 h
[2] = test system: NCI-H23; assay: Cytotoxicity against human NCI-H23 at 10 ug/ml; format: functional, cell-based
[3] = test system: Bacillus subtilis; assay: Antibacterial activity against Bacillus subtilis KCTC 1021 after 18 hrs by serial dilution technique; format: functional; conditions: KCTC 1021, 18 h
[4] = test system: Pseudomonas aeruginosa; assay: Antibacterial activity against Pseudomonas aeruginosa KCTC 2592 after 18 hrs by serial dilution technique; format: functional; conditions: KCTC 2592, 18 h
[5] = test system: NUGC-3; assay: Cytotoxicity against human NUGC3 at 10 ug/ml; format: functional, cell-based
[6] = test system: Staphylococcus aureus; assay: Antibacterial activity against Staphylococcus aureus KCTC 1916 after 18 hrs by serial dilution technique; format: functional; conditions: KCTC 1916, 18 h
[7] = test system: PC-3; assay: Cytotoxicity against human PC3 at 10 ug/ml; format: functional, cell-based
[8] = test system: HCT-15; assay: Cytotoxicity against human HCT15 at 10 ug/ml; format: functional, cell-based
[9] = test system: MDA-MB-231; assay: Cytotoxicity against human MDA-MB-231 at 10 ug/ml; format: functional, cell-based
[10] = test system: ACHN; assay: Cytotoxicity against human ACHN at 10 ug/ml; format: functional, cell-based

MIC [1]: 64 µg/mL (≈ 96.3 µM) | MIC [3]: 64 µg/mL (≈ 96.3 µM) | MIC [4]: 64 µg/mL (≈ 96.3 µM) | MIC [6]: 64 µg/mL (≈ 96.3 µM)
Compound: C[C@H]1CCC/C=C\C=C\[C@H](O)C[C@@H](O)C/C=C\C=C\[C@@H](OC(=O)CCC(=O)O[C@H]2O[C@@H](CO)[C@H](O)[C@@H](O)[C@@H]2O)C/C=C/C=C\C(=O)O1 [MACROLACTIN W]
Activity [2]: inactive | Activity [5]: inactive | Activity [7]: inactive | Activity [8]: inactive | Activity [9]: inactive | Activity [10]: inactive
